Results taken from US9624520B2, “Biosynthetically generated pyrroline-carboxy-lysine and site specific protein modifications via chemical derivatization of pyrroline-carboxy-lysine and pyrrolysine residues” (Novartis AG, priority 2008, dated 2017).
Entries after “also recorded” stand apart in the source; their conditions may differ. Counter-ions that a name gives are not always drawn.

Key:
[1] = system: HK100 cells; experiment: Incorporation of other analogues and precursors into FAS-TE L2222TAG (Ni-NTA, SDS-PAGE, Bradford); format: cell-based, Escherichia coli; conditions: for full-length protein production / PCL biosynthesis from precursor: Escherichia coli cells with pylB/pylC/pylD/pylS/pylT; for Bradford: 25 ml culture
[2] = pH 5
[3] = target: T1, pylS tRNA synthetase (Methanosarcina mazei, UniProt Q8PWY1); experiment: Incorporation test with synthetic pyrrolysine analogues (full-length hRBP4 mutant #6); format: cell-based; conditions: 2 or 5 mM analogue, HEK293F cells with pylT/pylS only, Western blot and SDS-PAGE
T1 construct: expressed in transfected cells; host or cells: HEK293F
Experimental: In parallel to the above experiment, the production of full-length hRBP4 Phe122PCL protein (mutant #6) was also measured in the presence of a series of synthetic pyrrolysine analogues designed with an acetyl moiety for chemical derivatization after protein incorporation (FIG. 14B). The synthetic analogues were prepared as described in Example 19. pRSRBP was co-transfected into HEK293F cells with pCMVpyS which supplies one gene copy of pylT tRNA and of pylS tRNA synthetase. Depending on solubility, the synthetic analogues were added to the media either at 2 or 5 mM final concentration.

[4] = system: HEK293F cells; experiment: Incorporation test with putative PCL and pyrrolysine precursors (full-length hRBP4 Phe122PCL); format: cell-based, human; conditions: 5 mM precursor; HEK293F cells with pylT, pylS, pylB, pylC, pylD; Western blot and SDS-PAGE of Ni-NTA purified samples
Experimental: The production of full-length hRBP4 Phe122PCL protein (mutant #6) was measured in the presence of the putative PCL precursor D-ornithine, D-proline, D-arginine, D-glutamic acid, 4-hydroxyl-D-proline and 2-pyrrolidone-5-carboxylic acid (FIGS. 13A and B, FIG. 14A). pRSRBP was co-transfected into HEK293F cells with pCMVpyS, pCMVpyB, pCMVpyC and pCMVpyD and cells were grown in the presence of 5 mM of the putative precursor (FIG. 14A) as described in Example 2.

[5] = system: PylD; experiment: NMR evaluation of Lys-Nε-D-Orn as substrate for PylD; format: biochemical, Methanosarcina mazei
[6] = Compound stability (degradation measured by nuclear magnetic resonance spectroscopy); format: physicochemical
[7] = purified FAS-TE from HK100 cells with pylB/pylC/pylD/pylS/pylT (lanes 5-11)

T1 sequence (Q8PWY1 whole entry): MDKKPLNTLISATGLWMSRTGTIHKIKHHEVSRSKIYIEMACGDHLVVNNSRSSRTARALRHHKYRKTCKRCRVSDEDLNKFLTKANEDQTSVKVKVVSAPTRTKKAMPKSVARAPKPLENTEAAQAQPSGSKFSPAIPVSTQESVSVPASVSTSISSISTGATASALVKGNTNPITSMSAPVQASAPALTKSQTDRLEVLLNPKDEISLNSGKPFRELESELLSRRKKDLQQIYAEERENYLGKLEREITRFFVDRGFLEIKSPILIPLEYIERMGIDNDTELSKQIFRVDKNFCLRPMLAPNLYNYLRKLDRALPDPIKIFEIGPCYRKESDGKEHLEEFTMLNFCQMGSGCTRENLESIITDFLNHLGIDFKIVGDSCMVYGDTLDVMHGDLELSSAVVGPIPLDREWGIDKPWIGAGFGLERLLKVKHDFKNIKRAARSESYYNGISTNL

SMILES: O=C(O)C1CCC=N1 (racemic) [P5C, Ammonium DL-1-pyrroline-5-carboxylate]
- full-length protein production / PCL biosynthesis from precursor [1]: failed to produce full-length protein; also recorded: not sufficient to support PCL biosynthesis
- Bradford [1, 7]: 0.075 mg/25 ml

SMILES: N[C@@H](CCCCNC(=O)C1CCC=N1)C(=O)O (mixture of isomers) [PCL-A, (S)-2-amino-6-(3,4-dihydro-2H-pyrrole-2-carboxamido) hexanoic acid]
- incorporation into protein (full-length FAS-TE) ([1]; Escherichia coli cells with only pylS and pylT genes): incorporated with high efficiency; also recorded: incorporated into proteins
- Bradford ([1]; purified FAS-TE from HK100 cells with pylS/pylT genes only (lanes 1-4)): 0.539 mg/25 ml

SMILES: Nc1ccc([N+](=O)[O-])cc1C(=O)c1ccccc1 [2-ANBP, 2-amino-5-nitro-benzophenone]
- solubility [2]: low solubility

SMILES: N[C@@H](CCCCNC(=O)OC1CCCC1)C(=O)O [CYC, N-ε-cyclopentyloxycarbonyl-L-lysine, reference compound]
- production of full-length hRBP4 (mutant #6) in the presence of synthetic pyrrolysine analogue [3]: protein production to a level similar to D-ornithine; also recorded: measurable protein band

SMILES: N=C(N)NCCC[C@@H](N)C(=O)O [D-arginine]
- production of full-length hRBP4 Phe122PCL protein in the presence of putative precursor [4]: above background protein production

SMILES: N[C@H](CCC(=O)O)C(=O)O [D-glutamic acid]
- production of full-length hRBP4 Phe122PCL protein in the presence of putative precursor [4]: did not result in full-length protein production above background

SMILES: NCCC[C@@H](N)C(=O)O [D-ornithine]
- production of full-length hRBP4 Phe122PCL protein in the presence of putative precursor [4]: measurable protein band

SMILES: O=C(O)[C@H]1CCCN1 [D-proline]
- production of full-length hRBP4 Phe122PCL protein in the presence of putative precursor [4]: did not result in full-length protein production above background

SMILES: NCCC[C@@H](N)C(=O)NCCCC[C@H](N)C(=O)O [Lys-Nε-D-ornithine, (2S)-2-amino-6-((R)-2,5-diaminopentanamido)hexanoic acid]
- substrate for PylD [5]: substrate for PylD
- full-length protein production / PCL biosynthesis from precursor ([1]; listed as Lys-Nε-D-Orn): resulted in protein expression with PCL incorporated at the amber codon
- full-length protein production / PCL biosynthesis from precursor ([1]; listed as Lys-Nε-D-orn): substantial amounts of full-length protein
- Bradford [1, 7]: 1.66 mg/25 ml

SMILES: O=C(O)C1=NCCC1 [P2C, 3,4-dihydro-2H-pyrrole-5-carboxylate]
- full-length protein production / PCL biosynthesis from precursor [1]: failed to produce full-length protein; also recorded: not sufficient to support PCL biosynthesis
- Bradford [1, 7]: 0.103 mg/25 ml

SMILES: CC(=O)CC(=O)NCCCC[C@H](N)C(=O)O [TU3000-016, (S)-2-amino-6-(3-oxobutanamido)hexanoic acid hydrochloride]
- compound stability [6]: not stable
- production of full-length hRBP4 (mutant #6) in the presence of synthetic pyrrolysine analogue ([3]; hydrochloride): measurable but much lower incorporation; also recorded: viable substrate for the pylS tRNA synthetase
